Results reported in US20220009967A1, “Isolation and Semi-Synthesis of Rufomycin Analogs” (THE BOARD OF TRUSTEES OF THE UNIVERSITY OF ILLINOIS, priority 2020, published 2022).
Converted amounts (≈) assume the structure as drawn. Where two headings read alike, the source gives them in different places.

Key:
Mycobacterial ClpC1 FL = biological target: T1, Mycobacterial ClpC1 FL (Mycobacterium tuberculosis, UniProt P9WPC9); experiment: SPR binding affinity to ClpC1 full-length protein (FL)
T1 construct: N-terminal domain (NTD) and the full-length protein (FL) by surface plasmon resonance (SPR)
T1 sequence (P9WPC9 whole entry, the tested form may be a part): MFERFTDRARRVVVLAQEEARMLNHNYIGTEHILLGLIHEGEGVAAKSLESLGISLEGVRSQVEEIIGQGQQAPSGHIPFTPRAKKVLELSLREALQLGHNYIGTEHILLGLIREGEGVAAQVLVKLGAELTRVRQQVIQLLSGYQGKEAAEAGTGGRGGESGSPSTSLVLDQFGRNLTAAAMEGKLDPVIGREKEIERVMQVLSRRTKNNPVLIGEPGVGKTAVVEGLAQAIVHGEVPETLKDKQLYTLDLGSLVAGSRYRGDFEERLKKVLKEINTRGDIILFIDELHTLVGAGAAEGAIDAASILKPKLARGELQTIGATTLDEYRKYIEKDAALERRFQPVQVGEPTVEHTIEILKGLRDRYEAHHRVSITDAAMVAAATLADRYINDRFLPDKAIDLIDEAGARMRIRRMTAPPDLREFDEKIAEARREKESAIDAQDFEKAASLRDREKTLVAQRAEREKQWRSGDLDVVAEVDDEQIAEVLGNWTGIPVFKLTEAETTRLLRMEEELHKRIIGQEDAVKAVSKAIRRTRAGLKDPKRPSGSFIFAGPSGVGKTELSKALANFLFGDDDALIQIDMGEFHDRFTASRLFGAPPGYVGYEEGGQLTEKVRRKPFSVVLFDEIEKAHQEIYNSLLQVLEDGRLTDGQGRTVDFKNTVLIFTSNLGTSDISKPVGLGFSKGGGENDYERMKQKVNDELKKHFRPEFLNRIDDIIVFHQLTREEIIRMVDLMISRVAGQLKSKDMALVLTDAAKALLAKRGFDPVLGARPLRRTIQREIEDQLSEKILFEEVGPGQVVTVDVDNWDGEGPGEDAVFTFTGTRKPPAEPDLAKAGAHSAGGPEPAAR
Description: (§1) Analysis of binding affinity to Mycobacterial ClpC1-NTD and FL by SPR. SPR binding assay was performed using a previously reported method (Choules et al., Antimicrob. Agents Chemother. 2019, 63, e02204-02218; Wolf et al., ACS Infect. Dis. 2019, 5, 829-840). Kinetic rate constants (ka and kd) were determined by fitting the double-reference data globally to the 1:1 Langmuir model embedded in the Biacore T200 evaluation software (v3.0). KD values were then calculated from the two rate constants (KD=kd/ka). Smaller KD values represent tighter binding affinities.

M. tuberculosis = experiment: MIC against M. tuberculosis, microplate Alamar Blue assay (MABA); type: cell-based, Mycobacterium tuberculosis; set-up: MIC90: unit not given beside the values; conditions: for MIC90: MABA, Table 3, unit not given
Description: MICs against M. tuberculosis. The MIC was defined as the minimum concentration of the compound required to achieve a reduction in fluorescence by 90% relative to the untreated bacterial controls. The anti-TB activity was determined by the microplate Alamar Blue assay (MABA) as previously described (Choules et al., Antimicrob. Agents Chemother. 2019, 63, e02204-02218).

Mycobacterial ClpC1-NTD = biological target: T2, Mycobacterial ClpC1-NTD (Mycobacterium tuberculosis, UniProt P9WPC9); experiment: SPR binding affinity to ClpC1-NTD
T2 construct: caseinolytic protein C1 (ClpC1) N-terminal domain (NTD)
Description: as §1

[1] = Interconversion (epimerization) of rufomycin diastereomers, HPLC analysis; type: physicochemical; conditions: HPLC analysis; hemi-aminal epimers
From the text: The rufomycins 32-35 were identified as four diastereomers, arising from different orientations of the hydroxyl and methyl groups in the hydroxy-methyl piperidinone moiety. Rufomycin 32 was assigned the (AA5, 4S,5R) absolute configuration based on the ROESY correlations, and further confirmed by the cocrystal structures of rufomycin 32 and ClpC1-NTD. Thus, rufomycin 32 is that congener previously identified as ilamycin, Compound 4, and ilamycin C1 (PCT/US2000/015044). […] The assigned 4S,5S (AA5) absolute configuration for rufomycin 33 was validated by the ROESY correlations. Rufomycin 34 with the absolute configuration 4R,5R (AA5) was established by the ROESY cross-peaks. […] After being purified by semi-prep HPLC, rufomycin 35 was concentrated under a stream of forced air and freeze drying to reduce interconversion.

[2] = ClpC1 full-length protein, KD=kd/ka, Table 1, read-out: SPR KD FL
[3] = ClpC1 N-terminal domain, KD=kd/ka, Table 1, read-out: SPR KD NTD

| SMILES | Kd (Mycobacterial ClpC1 FL; [2]) [nM] | MIC (M. tuberculosis; Mycobacterium tuberculosis) [µM] | Kd (Mycobacterial ClpC1-NTD; [3]) [nM] | other results |
| --- | --- | --- | --- | --- |
| C/C=C/C[C@@H]1NC(=O)[C@H](CC(C)C)N2C=C(C)C[C@@H](C2=O)N(C)C(=O)[C@H](C)NC(=O)[C@H](Cc2ccc(O)c([N+](=O)[O-])c2)NC(=O)[C@H](CC(C)C)N(C)C(=O)[C@H](Cc2cn(C(C)(C)[C@H](O)CCl)c3ccccc23)NC1=O [Compound 3] | 97.1 | 0.0188 ± 0.004 (≈ 0.0199 µg/mL) | 82.3 |  |
| C/C=C/C[C@@H]1NC(=O)[C@H](CC(C)C)N2C(=O)[C@H](CC(C)[C@H]2OC)N(C)C(=O)[C@H](C)NC(=O)[C@H](Cc2ccc(O)c([N+](=O)[O-])c2)NC(=O)[C@H](CC(C)C)N(C)C(=O)[C@H](Cc2cn(C(C)(C)[C@H](O)COC)c3ccccc23)NC1=O (stereo partly shown) [Compound 4] | 79.9 | 0.0064 ± 0.0018 (≈ 0.00697 µg/mL) | 88.5 |  |
| C/C=C/C[C@@H]1NC(=O)[C@H](CC(C)C)N2C(=O)[C@H](CC(C)[C@H]2OC)N(C)C(=O)[C@H](C)NC(=O)[C@H](Cc2ccc(O)c([N+](=O)[O-])c2)NC(=O)[C@H](CC(C)C)N(C)C(=O)[C@H](Cc2cn(C(C)(C)[C@H](O)CCl)c3ccccc23)NC1=O (stereo partly shown) [Compound 5] | 163 |  | 123 |  |
| C/C=C/C[C@@H]1NC(=O)[C@H](CC(C)C)N2C(=O)[C@H](CC(C)[C@H]2OC)N(C)C(=O)[C@H](C)NC(=O)[C@H](Cc2ccc(O)c([N+](=O)[O-])c2)NC(=O)[C@H](CC(C)C)N(C)C(=O)[C@H](Cc2cn(C(C)(C)[C@H]3CO3)c3ccccc23)NC1=O (stereo partly shown) [Compound 6] | 31.7 |  | 103 | increase in activity compared to rufomycin analogues 1 and 2 (M. tuberculosis; MIC ratio, in words): ten-fold increase in activity; MIC (M. tuberculosis; text summary of Table 1, unit not given): 1.9 |
| C/C=C/C[C@@H]1NC(=O)[C@H](CC(C)C)N2C(=O)[C@H](CC(C)[C@H]2O)N(C)C(=O)[C@H](C)NC(=O)[C@H](Cc2ccc(O)c([N+](=O)[O-])c2)NC(=O)[C@H](CC(C)C)N(C)C(=O)[C@H](Cc2cn(C(C)(C)[C@H](O)CCl)c3ccccc23)NC1=O (stereo partly shown) [Compound 7] | 116 | 0.0464 ± 0.0046 (≈ 0.0501 µg/mL) | 114 |  |
| C/C=C/C[C@@H]1NC(=O)[C@H](CC(C)C)N2C(=O)[C@H](CC(C)[C@H]2OCC)N(C)C(=O)[C@H](C)NC(=O)[C@H](Cc2ccc(O)c([N+](=O)[O-])c2)NC(=O)[C@H](CC(C)C)N(C)C(=O)[C@H](Cc2cn(C(C)(C)[C@H](O)CCl)c3ccccc23)NC1=O (stereo partly shown) [Compound 8] | 142 | 0.244 ± 0.0271 (≈ 0.27 µg/mL) | 120 |  |
| C/C=C/C[C@@H]1NC(=O)[C@H](CC(C)C)N2C(=O)[C@H](CC(C)[C@H]2OCCC)N(C)C(=O)[C@H](C)NC(=O)[C@H](Cc2ccc(O)c([N+](=O)[O-])c2)NC(=O)[C@H](CC(C)C)N(C)C(=O)[C@H](Cc2cn(C(C)(C)[C@H](O)CCl)c3ccccc23)NC1=O (stereo partly shown) [Compound 10] | 143 | 0.75 ± 0.0107 (≈ 0.84 µg/mL) | 90.7 |  |
| C/C=C/C[C@@H]1NC(=O)[C@H](CC(C)C)N2C=C(C)C[C@@H](C2=O)N(C)C(=O)[C@H](C)NC(=O)[C@H](Cc2ccc(OC(C)=O)c([N+](=O)[O-])c2)NC(=O)[C@H](CC(C)C)N(C)C(=O)[C@H](Cc2cn(C(C)(C)[C@H](O)CCl)c3ccccc23)NC1=O [Compound 15] | 513 | 0.0224 (≈ 0.0247 µg/mL) | 317 |  |
| C/C=C/C[C@@H]1NC(=O)[C@H](CC(C)C)N2C=C(C)C[C@@H](C2=O)N(C)C(=O)[C@H](C)NC(=O)[C@H](Cc2ccc(OC)c([N+](=O)[O-])c2)NC(=O)[C@H](CC(C)C)N(C)C(=O)[C@H](Cc2cn(C(C)(C)[C@H]3CO3)c3ccccc23)NC1=O [Compound 16] | 883 | 0.0726 (≈ 0.0754 µg/mL) | 580 |  |
| C/C=C/C[C@@H]1NC(=O)[C@H](CC(C)C)N2C=C(C)C[C@@H](C2=O)N(C)C(=O)[C@H](C)NC(=O)[C@H](Cc2ccc(OC(=O)c3ccccc3)c([N+](=O)[O-])c2)NC(=O)[C@H](CC(C)C)N(C)C(=O)[C@H](Cc2cn(C(C)(C)[C@H](O)CCl)c3ccccc23)NC1=O [Compound 17] |  | 0.0529 (≈ 0.0616 µg/mL) |  | Kd (Mycobacterial ClpC1 FL): 2030 nM; Kd (Mycobacterial ClpC1-NTD): 1250 nM |
| C/C=C/C[C@@H]1NC(=O)[C@H](CC(C)C)N2C=C(C)C[C@@H](C2=O)N(C)C(=O)[C@H](C)NC(=O)[C@H](Cc2ccc(O)c(N)c2)NC(=O)[C@H](CC(C)C)N(C)C(=O)[C@H](Cc2cn(C(C)(C)[C@H](O)CCl)c3ccccc23)NC1=O [Compound 19] | 319 | 0.887 (≈ 0.914 µg/mL) | 501 |  |
| C/C=C/C[C@@H]1NC(=O)[C@H](CC(C)C)N2C=C(C)C[C@@H](C2=O)N(C)C(=O)[C@H](C)NC(=O)[C@H](Cc2ccc3c(c2)N=C(C)CC(C)(C)O3)NC(=O)[C@H](CC(C)C)N(C)C(=O)[C@H](Cc2cn(C(C)(C)[C@H](O)CCl)c3ccccc23)NC1=O [Compound 20] | 234 | 0.782 (≈ 0.869 µg/mL) | 196 |  |
| C/C=C/C[C@@H]1NC(=O)[C@H](CC(C)C)N2C(=O)[C@H](CC(C)[C@H]2OC)N(C)C(=O)[C@H](C)NC(=O)[C@H](Cc2ccc(OC)c([N+](=O)[O-])c2)NC(=O)[C@H](CC(C)C)N(C)C(=O)[C@H](Cc2cn(C(C)(C)[C@H]3CO3)c3ccccc23)N(C)C1=O (stereo partly shown) [Compound 24] | 513 | 0.0646 (≈ 0.07 µg/mL) | 451 |  |
| C/C=C/C[C@@H]1NC(=O)[C@H](CC(C)C)N2C(=O)[C@H](CC(C)[C@H]2O)N(C)C(=O)[C@H](C)NC(=O)[C@H](Cc2ccc(OC(C)=O)c([N+](=O)[O-])c2)NC(=O)[C@H](CC(C)C)N(C)C(=O)[C@H](Cc2cn(C(C)(C)[C@H]3CO3)c3ccccc23)NC1=O (stereo partly shown) [Compound 25] | 72.5 | 0.0184 ± 0.006 (≈ 0.02 µg/mL) | 56 |  |
| C/C=C/C[C@@H]1NC(=O)[C@H](CC(C)C)N2C(=O)[C@H](CC(C)[C@H]2OC(C)=O)N(C)C(=O)[C@H](C)NC(=O)[C@H](Cc2ccc(OC(C)=O)c([N+](=O)[O-])c2)NC(=O)[C@H](CC(C)C)N(C)C(=O)[C@H](Cc2cn(C(C)(C)[C@H]3CO3)c3ccccc23)NC1=O (stereo partly shown) [Compound 26] | 16 | 0.0089 ± 0.0036 (≈ 0.01 µg/mL) | 33.8 |  |
| C/C=C/C[C@@H]1NC(=O)[C@H](CC(C)C)N2C(=O)[C@H](CC(C)[C@H]2O)N(C)C(=O)[C@H](C)NC(=O)[C@H](Cc2ccc(OC)c([N+](=O)[O-])c2)NC(=O)[C@H](CC(C)C)N(C)C(=O)[C@H](Cc2cn(C(C)(C)[C@H]3CO3)c3ccccc23)NC1=O (stereo partly shown) [Compound 29] | 133 | 0.0543 (≈ 0.0574 µg/mL) | 117 |  |
| C/C=C/C[C@@H]1NC(=O)[C@H](CC(C)C)N2C(=O)[C@H](CC(C)[C@H]2OC)N(C)C(=O)[C@H](C)NC(=O)[C@H](Cc2ccc(OC)c([N+](=O)[O-])c2)NC(=O)[C@H](CC(C)C)N(C)C(=O)[C@H](Cc2cn(C(C)(C)[C@H]3CO3)c3ccccc23)NC1=O (stereo partly shown) [Compound 30] | 75.1 | 0.0058 (≈ 0.00621 µg/mL) | 55.5 |  |
| NNC(=O)c1ccncc1 [INH, isoniazid, reference compound] |  |  |  | MIC90 (M. tuberculosis): 463 |
| CO[C@H]1/C=C/O[C@@]2(C)Oc3c(C)c(O)c4c(O)c(c(/C=N/N5CCN(C)CC5)c(O)c4c3C2=O)NC(=O)/C(C)=C\C=C\[C@H](C)[C@H](O)[C@@H](C)[C@@H](O)[C@@H](C)[C@H](OC(C)=O)[C@@H]1C [RMP, rifampin, reference compound] |  |  |  | MIC90 (M. tuberculosis): 28 |
| C/C=C/C[C@@H]1NC(=O)[C@H](CC(C)C)N2C(=O)[C@H](C[C@H](C)[C@H]2O)N(C)C(=O)[C@H](C)NC(=O)[C@H](Cc2ccc(O)c([N+](=O)[O-])c2)NC(=O)[C@H](CC(C)C)N(C)C(=O)[C@H](Cc2cn(C(C)(C)[C@H]3CO3)c3ccccc23)NC1=O [rufomycin 32] |  |  |  | Kd (Mycobacterial ClpC1 FL; SPR, ClpC1 full-length protein, Table 3, unit inferred, read-out: KD FL): 31 nM; interconversion / stability of diastereomers (in words) [1]: interconvertible; MIC90 (M. tuberculosis): 21; anti-M.tb potency relative to rifampin and isoniazid (in words) (M. tuberculosis; MIC data of Table 3): higher potency than drugs rifampin and isoniazid; Kd (Mycobacterial ClpC1-NTD; SPR, ClpC1 N-terminal domain, Table 3, unit inferred, read-out: KD NTD): 32 nM |
